Experimental data reported in article PMC7419507, “In vitro Cas9-assisted editing of modular polyketide synthase genes to produce desired natural product derivatives” (Nature Communications, 2020).
Several values for one entry are separate records, joined by “and”; a condition that tells them apart may be missing. Identical values can stand only once.

What was measured:
Assay type in all cases: cell-based
[1] = Cytotoxicity assay (CellTiter-Glo, 72 h), MESO-1; settings: human, MESO-1 malignant pleural mesothelioma cells, raw replicate data, read-out: MESO1 viability (%); for viability at 72 h, 9.53674e-05 uM: conc 9.53674e-5 uM; for viability at 72 h, 0.000190735 uM: conc 0.000190735 uM; for viability at 72 h, 0.00038147 uM: conc 0.00038147 uM; for viability at 72 h, 0.000762939 uM: conc 0.000762939 uM; for viability at 72 h, 0.00152588 uM: conc 0.00152588 uM; for viability at 72 h, 0.00305176 uM: conc 0.00305176 uM; for viability at 72 h, 0.00610352 uM: conc 0.00610352 uM; for viability at 72 h, 0.012207 uM: conc 0.012207 uM; for viability at 72 h, 0.0244141 uM: conc 0.0244141 uM; for viability at 72 h, 0.0488281 uM: conc 0.0488281 uM; for viability at 72 h, 0.0976562 uM: conc 0.0976562 uM; for viability at 72 h, 0.195312 uM: conc 0.195312 uM; for viability at 72 h, 0.390625 uM: conc 0.390625 uM; for viability at 72 h, 0.78125 uM: conc 0.78125 uM; for viability at 72 h, 1.5625 uM: conc 1.5625 uM; for viability at 72 h, 3.125 uM: conc 3.125 uM; for viability at 72 h, 6.25 uM: conc 6.25 uM; for viability at 72 h, 12.5 uM: conc 12.5 uM; for viability at 72 h, 25 uM: conc 25 uM; for viability at 72 h, 50 uM: conc 50 uM
How it was run: (§1)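 Incubate 4 h at 37 °C, 5% CO2. Add 2-fold compound dilutions, 0.5% DMSO. After 72 h, read CellTiter-Glo luminescence.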

[2] = test system: malignant pleural mesothelioma MESO-1 cells; test: Cytotoxicity assay (CellTiter-Glo, 72 h), MESO-1; settings: raw replicate data
How it was run: as §1

[3] = test system: Jurkat, SKOV-3 and MESO-1 cells; test: Cytotoxicity assay, statements for all tested cell lines together; settings: for Effect on cell viability, in words: Jurkat, SKOV-3 and MESO-1 cells, 72 h
How it was run: as §1

CO[C@H]1C[C@@H]2CC[C@@H](C)[C@@](O)(O2)C(=O)C(=O)N2CCCC[C@H]2C(=O)O[C@H]([C@H](C)C[C@@H]2CC[C@@H](O)[C@H](OC)C2)CC(=O)[C@H](C)/C=C(\C)[C@@H](O)CC(=O)[C@H](C)C[C@H](C)/C=C/C=C(C)/C=C/1C [Compound 2, 27-demethoxy-19-methyl rapamycin]
viability at 72 h, 9.53674e-05 uM [1]: 101%
viability at 72 h, 0.000190735 uM [1]: 97.4%
viability at 72 h, 0.00038147 uM [1]: 96%
viability at 72 h, 0.000762939 uM [1]: 100%
viability at 72 h, 0.00152588 uM [1]: 97%
viability at 72 h, 0.00305176 uM [1]: 104%
viability at 72 h, 0.00610352 uM [1]: 105%
viability at 72 h, 0.012207 uM [1]: 103%
viability at 72 h, 0.0244141 uM [1]: 103%
viability at 72 h, 0.0488281 uM [1]: 102%
viability at 72 h, 0.0976562 uM [1]: 107%
viability at 72 h, 0.195312 uM [1]: 103%
viability at 72 h, 0.390625 uM [1]: 109%
viability at 72 h, 0.78125 uM [1]: 93.3%
viability at 72 h, 1.5625 uM [1]: 99.9%
viability at 72 h, 3.125 uM [1]: 97.7%
viability at 72 h, 6.25 uM [1]: 97.3%
viability at 72 h, 12.5 uM [1]: 98%
viability at 72 h, 25 uM [1]: 84%
viability at 72 h, 50 uM [1]: 2.4%
MESO1 viability (%) ([2]; conc 9.53674e-5 uM): 104.9%
MESO1 viability (%) ([2]; conc 0.000190735 uM): 103.1% and 96.1%
MESO1 viability (%) ([2]; conc 0.00038147 uM): 98.5% and 98.1%
MESO1 viability (%) ([2]; conc 0.000762939 uM): 110.7% and 97.2%
MESO1 viability (%) ([2]; conc 0.00152588 uM): 108.1% and 104.8%
MESO1 viability (%) ([2]; conc 0.00305176 uM): 97.8% and 100.1%
MESO1 viability (%) ([2]; conc 0.00610352 uM): 108.3% and 98.8%
MESO1 viability (%) ([2]; conc 0.012207 uM): 101.9% and 99.1%
MESO1 viability (%) ([2]; conc 0.0244141 uM): 104.7% and 100.7%
MESO1 viability (%) ([2]; conc 0.0488281 uM): 104.5% and 103.1%
MESO1 viability (%) ([2]; conc 0.0976562 uM): 98.7% and 102.0%
MESO1 viability (%) ([2]; conc 0.195312 uM): 104.9% and 106.8%
MESO1 viability (%) ([2]; conc 0.390625 uM): 97.6% and 96.8%
MESO1 viability (%) ([2]; conc 0.78125 uM): 95.1% and 98.4%
MESO1 viability (%) ([2]; conc 1.5625 uM): 99.0% and 101.9%
MESO1 viability (%) ([2]; conc 3.125 uM): 94.6% and 96.8%
MESO1 viability (%) ([2]; conc 6.25 uM): 96.9% and 103.3%
MESO1 viability (%) ([2]; conc 12.5 uM): 98.9% and 92.4%
MESO1 viability (%) ([2]; conc 25 uM): 86.3% and 80.9%
MESO1 viability (%) ([2]; conc 50 uM): 1.2% and 1.3%
Concentration at which cytotoxic activities were shown ([3]; against the tested cell lines (Jurkat, SKOV-3, MESO-1)): over 10 µM

CO[C@@H]1/C=C/C=C/[C@@H](C)C[C@@H](C)C(=O)C[C@H](O)/C(C)=C/[C@@H](C)C(=O)C[C@@H]([C@H](C)C[C@@H]2CC[C@@H](O)[C@H](OC)C2)OC(=O)[C@@H]2CCCCN2C(=O)C(=O)[C@]2(O)O[C@@H](CC[C@H]2C)C1 [Compound 9]
viability at 72 h, 9.53674e-05 uM [1]: 101%
viability at 72 h, 0.000190735 uM [1]: 93.5%
viability at 72 h, 0.00038147 uM [1]: 95%
viability at 72 h, 0.000762939 uM [1]: 93.4%
viability at 72 h, 0.00152588 uM [1]: 100%
viability at 72 h, 0.00305176 uM [1]: 92.4%
viability at 72 h, 0.00610352 uM [1]: 95.6%
viability at 72 h, 0.012207 uM [1]: 89.8%
viability at 72 h, 0.0244141 uM [1]: 91%
viability at 72 h, 0.0488281 uM [1]: 82.4%
viability at 72 h, 0.0976562 uM [1]: 85.7%
viability at 72 h, 0.195312 uM [1]: 74.8%
viability at 72 h, 0.390625 uM [1]: 75.8%
viability at 72 h, 0.78125 uM [1]: 66.3%
viability at 72 h, 1.5625 uM [1]: 71.8%
viability at 72 h, 3.125 uM [1]: 65.2%
viability at 72 h, 6.25 uM [1]: 69.4%
viability at 72 h, 12.5 uM [1]: 63.3%
viability at 72 h, 25 uM [1]: 63.9%
viability at 72 h, 50 uM [1]: 53%
MESO1 viability (%) ([2]; conc 9.53674e-5 uM): 98.3% and 100.4%
MESO1 viability (%) ([2]; conc 0.000190735 uM): 90.7% and 98.1%
MESO1 viability (%) ([2]; conc 0.00038147 uM): 97.4% and 97.9%
MESO1 viability (%) ([2]; conc 0.000762939 uM): 94.8% and 94.3%
MESO1 viability (%) ([2]; conc 0.00152588 uM): 99.1% and 102.8%
MESO1 viability (%) ([2]; conc 0.00305176 uM): 92.2% and 94.8%
MESO1 viability (%) ([2]; conc 0.00610352 uM): 96.7% and 92.3%
MESO1 viability (%) ([2]; conc 0.012207 uM): 91.8%
MESO1 viability (%) ([2]; conc 0.0244141 uM): 99.0% and 94.1%
MESO1 viability (%) ([2]; conc 0.0488281 uM): 84.2% and 90.6%
MESO1 viability (%) ([2]; conc 0.0976562 uM): 83.8% and 83.9%
MESO1 viability (%) ([2]; conc 0.195312 uM): 74.7% and 76.1%
MESO1 viability (%) ([2]; conc 0.390625 uM): 72.2% and 72.1%
MESO1 viability (%) ([2]; conc 0.78125 uM): 64.8% and 71.9%
MESO1 viability (%) ([2]; conc 1.5625 uM): 69.3% and 70.3%
MESO1 viability (%) ([2]; conc 3.125 uM): 69.9%
MESO1 viability (%) ([2]; conc 6.25 uM): 70.9% and 68.1%
MESO1 viability (%) ([2]; conc 12.5 uM): 63.1% and 61.3%
MESO1 viability (%) ([2]; conc 25 uM): 65.5% and 63.8%
MESO1 viability (%) ([2]; conc 50 uM): 61.4% and 51.1%
Effect on cell viability, in words [3]: slightly suppressed the cell viabilities

COC1CC2CCC(C)C(O)(O2)C(=O)C(=O)N2CCCCC2C(=O)OC(C(C)CC2CCC(O)C(OC)C2)CC(=O)C(C)C=C(C)C(O)CC(=O)C(C)C=C(C)C=CC=CC=C1C (stereo not drawn) [Compound 14]
viability at 72 h, 9.53674e-05 uM [1]: 96.6%
viability at 72 h, 0.000190735 uM [1]: 97.8%
viability at 72 h, 0.00038147 uM [1]: 94.8%
viability at 72 h, 0.000762939 uM [1]: 104%
viability at 72 h, 0.00152588 uM [1]: 102%
viability at 72 h, 0.00305176 uM [1]: 94.6%
viability at 72 h, 0.00610352 uM [1]: 95.7%
viability at 72 h, 0.012207 uM [1]: 94.6%
viability at 72 h, 0.0244141 uM [1]: 94.7%
viability at 72 h, 0.0488281 uM [1]: 96.1%
viability at 72 h, 0.0976562 uM [1]: 102%
viability at 72 h, 0.195312 uM [1]: 90.3%
viability at 72 h, 0.390625 uM [1]: 93.7%
viability at 72 h, 0.78125 uM [1]: 79%
viability at 72 h, 1.5625 uM [1]: 79.3%
viability at 72 h, 3.125 uM [1]: 75%
viability at 72 h, 6.25 uM [1]: 77.6%
viability at 72 h, 12.5 uM [1]: 72.5%
viability at 72 h, 25 uM [1]: 74.6%
viability at 72 h, 50 uM [1]: 59.3%
MESO1 viability (%) ([2]; conc 9.53674e-5 uM): 99.4% and 103.8%
MESO1 viability (%) ([2]; conc 0.000190735 uM): 95.6% and 99.1%
MESO1 viability (%) ([2]; conc 0.00038147 uM): 104.7% and 94.5%
MESO1 viability (%) ([2]; conc 0.000762939 uM): 96.5%
MESO1 viability (%) ([2]; conc 0.00152588 uM): 101.1% and 98.7%
MESO1 viability (%) ([2]; conc 0.00305176 uM): 99.6% and 99.1%
MESO1 viability (%) ([2]; conc 0.00610352 uM): 100.1%
MESO1 viability (%) ([2]; conc 0.012207 uM): 95.8% and 96.3%
MESO1 viability (%) ([2]; conc 0.0244141 uM): 100.3% and 106.1%
MESO1 viability (%) ([2]; conc 0.0488281 uM): 100.9% and 99.1%
MESO1 viability (%) ([2]; conc 0.0976562 uM): 96.4% and 97.3%
MESO1 viability (%) ([2]; conc 0.195312 uM): 87.1% and 89.8%
MESO1 viability (%) ([2]; conc 0.390625 uM): 94.1% and 98.7%
MESO1 viability (%) ([2]; conc 0.78125 uM): 79.4% and 79.1%
MESO1 viability (%) ([2]; conc 1.5625 uM): 71.5% and 77.1%
MESO1 viability (%) ([2]; conc 3.125 uM): 73.4% and 72.1%
MESO1 viability (%) ([2]; conc 6.25 uM): 74.3% and 73.5%
MESO1 viability (%) ([2]; conc 12.5 uM): 68.9% and 72.8%
MESO1 viability (%) ([2]; conc 25 uM): 69.4% and 68.8%
MESO1 viability (%) ([2]; conc 50 uM): 60.5% and 62.4%
Effect on cell viability, in words [3]: slightly suppressed the cell viabilities
